# US8324346B2, “Bioactive keratin peptides” (Keraplast Technologies, Ltd., priority 2002, dated 2012)
# Key:
# [1] = system: human dermal fibroblasts; assay: Biological effect of peptide compositions on human dermal fibroblasts (cell proliferation); type: cell-based; conditions: for increase in cell proliferation: human dermal fibroblasts, positive control
# Method: A second set of studies was performed that tested the biological effect of the peptide compositions on human dermal fibroblasts after three and five days of exposure. After three days of exposure, the peptide composition produced a greater than 25% increase in cell proliferation at concentrations between 0.5 and 10 ug/ml. The positive control, […] fibroblast growth factor (bFGF25), produced a greater than 30% increase in cell proliferation. After five days of exposure, peptide compositions at a concentration of 0.5 to 10 ug/ml produced increases in cell proliferation of between 9% and 12%. The positive control produced a greater than 13% increase.
# Related in vitro tests confirmed that the mitogenic effect of the peptide compositions on dermal fibroblasts increased with concentration up to nearly 150% of the negative control at 1000 ug/ml concentration. Compositions with greater purity increased the mitogenic effect to over 1000% of the negative control. The positive control in these studies, platelet derived growth factor (PDGF), increased the mitogenic effect to nearly 700% of the negative control.
# [2] = system: keratinocytes; assay: Mitogenic effects of crude peptide compositions on keratinocytes (OD 530 nm); type: cell-based, human; conditions: 5 days of exposure, positive control
substance,measurement,setting,value
PDGF,"mitogenic effect, % of the negative control","[1]; dermal fibroblasts, concentration not given",~700%
"EGF25: epidermal growth factor (EGF25), positive control in the keratinocyte studies",increase in keratinocyte proliferation,[2],greater than 25%
"bFGF25: bovine-derived fibroblast growth factor (bFGF25), positive control",increase in cell proliferation,[1]; five days of exposure,greater than 13%
same,increase in cell proliferation,[1]; three days of exposure,greater than 30%
